Results published in patent publication US20250313960A1, “CHOLINE HYDROXIDE FOR SALT DI[…] RENEWABLE FEEDSTOCK PROCESS” (Ecolab USA Inc., priority 2024, published 2025).

How the values were obtained:
[1] = all temperatures; compared with NH4Cl; FIG. 2, literature values or calculated from solubility data
Method: The effectiveness of the salt to dissolve in the aqueous phase was determined by its critical relative humidity (CRH) at various temperatures. CRH was defined by the ratio of the partial pressure of water in the solution (Pw) to the partial pressure of pure water (P*w) shown below.
The CRH of the salt at a specified temperature was calculated from thermodynamic parameters found in the equation:
Where CRH was the critical relative humidity, T was the temperature, ΔHs was the heat of solution at infinite dilution, R is the gas constant, and A, B, and C are solubility parameters obtained from solubility as a function of temperature of the salt.
Data not available in the literature was experimentally performed in triplicate by an enthalpy experiment and a solubility experiment.
The enthalpy experiment was conducted by recording changes in temperature as different amounts of the salt dissolved in a set volume of water located in a calorimeter. The enthalpy of solution was calculated for each of the different amount of salt used. The enthalpy data was then fitted and extrapolated to determine enthalpy of solution at an infinite dilution.
The CRH values at room temperature were found in literature or calculated from the solubility data following the below equations.

[2] = in water; all tested temperatures; compared with NH4Cl; FIG. 1, literature and experimental data
Method: The solubility experiment was conducted by adding different amounts of salt to a set amount of water in glass vials. The amount of water used was such that the salt was mostly insoluble at room temperature. The vials were then heated up until all salts were dissolved. Temperature was recorded as each vial cooled. The temperature at which crystallization began was noted.

Structure (SMILES): C[N+](C)(C)CCO.[Cl-] [ChCl, choline chloride]
- critical relative humidity (CRH) [1]: lower
- solubility as a function of temperature (mol salt/mol water) [2]: more soluble than NH4Cl
